Literature values, collected in patent US12569533B2, “Bruising and filler compositions and methods for use” (Alastin Skincare, Inc., priority 2021, dated 2026).

System: hyaluronic acid level
Conditions: ex vivo human skin model

In the case of `CCCCCCCC(=O)CCc1ccc(O)c(OC)c1` [Hydroxymethoxyphenyl decanone], the “stimulation of dermal hyaluronic acid level versus placebo” value (dermal) is given as 259% and the “stimulation of epidermal hyaluronic acid level versus placebo” value (epidermal) is given as 198%.
